Measurements reported in US5618675A, “Methods and compositions for detecting lipopolysaccharides using CAP18 fragments” (Panorama Research, Inc., dated 1997).
Where two headings read alike, the source gives them in different places.

Tests used:
[1] = test system: RAW 264.7 cells; type: cell-based, murine; details: for Inhibition of LPS-induced RNI-IC50: LPS-induced (2.5 ng/ml LPS in FIG. 6B); for concentrations at which peptides are active in the bioassay: day-to-day variation
Experimental: (§1) From the sequence of the CAP18 cDNA, it was apparent that the putative N-terminal peptide of CAP18 was in fact an internal fragment of the CAP18 protein. We therefore tried to reconfirm the original protein sequence. Neutrophil-derived heparin bound cationic proteins were prepared as described above and applied to a C18 reverse phase HPLC (FIG. 1). We sequenced the major peaks. Peaks at fractions 14.5 and 15.2 correspond to defensins MCP1 and MCP2 (Territo et al. (1989) J. Clin. Invest. 84:2017-2019), respectively. Fraction 25.8 is macrophage related protein 14 (MRP14) (Odink et al. (1987) Nature 330:80-82). The fraction at 20.3 minutes corresponds to a fragment of CAP18 of approximately 4-5 kD. […] The murine macrophage cell line RAW 264.7 (obtained from ATCC) and thioglycolate-elicited murine peritoneal exudate cells are used to produce RNI. Cells are cultured at 1×10^6 /ml. in RPMI-1640 +2.5% FCS in 24 well plates in the presence or absence of different concentrations of LPS or murine rlFNγ. After 24 hr. incubation at 37° C. the cell free supernatant is collected and tested for the presence of RNI. Accumulation of nitrite in the medium is measured by a colorimetric assay based on the Griess reaction (Green et al. (1982) Anal. Biochem. 126:11) using sodium nitrite as standards. Sample (50 μl) is mixed with 50 μl of Griess reagent (1% sulfanilamide, 0.1% naphthalene diamine dihydrochloride, 2.5% H3 PO4) and after 10 min. at room temperature absorbance is read at 570 nm.

[2] = test system: Klebsiella pneumoniae LPS; assay: Inhibition of RNIP-mediated hemagglutination by LPS; type: binding; details: #36-1 at 16 μg/ml, RNIP (#197) at 25 μg/ml preincubated with LPS 30 minutes
Experimental: (§2) For hemagglutination assays, erythrocytes were sensitized with LPS as follows. One ml of 1% erythrocyte suspension (human 0 type, C3H/HeN mouse or sheep) was mixed with 0.2 ml of LPS solution and incubated at 37° C. for 30 min, followed by washing with phosphate buffered saline (PBS), and then the concentration of suspension was adjusted to 1.0%. In the case of S-LPS, the solution was heated at 100° C. for 1 hour before sensitization of erythrocytes. […] Activity of CAP was expressed as a minimum agglutinating concentration (MAC) of CAP. According to the method of Kirikae et al. (1986) Microbiol. Immunol. 30:269-274, 50 μl of 2-fold serial dilution of Re-LPS was added to 50 μl of 1.0% rabbit erythrocyte suspension, and incubated at 37° C. for 3, hour. Minimum agglutinating concentration of Re-LPS was expressed as 1 HA unit.
(§3) Another series of experiments was performed to determine if the #36-1 and #197 (RNIP) peptides were capable of binding to LPS from various species of Gram-negative bacteria. For these experiments, sheep red blood cells were sensitized with Salmonella minnesota Re-LPS. Peptides #36-1 and #197 (RNIP) were preincubated with various preparations of LPS. Both peptides bind to a diverse group of lipopolysaccharides.
(§4) °Peptide #361 (16 μg/ml) and RNIP (#197) (25 μg/ml) were
(§5) preincubated with each LPS preparation at 370 for 30 minutes, and each
(§6) reaction mixture was added to sheep erythrocytes sensitized with RELPS.

[3] = test system: E. coli J5 LPS; assay: as above; type: binding; details: #36-1 at 16 μg/ml, RNIP (#197) at 25 μg/ml preincubated with LPS 30 minutes
Experimental: as §2, §3, §4, §5, §6

[4] = test system: Pseudomonas aeruginosa F-D Type I LPS; assay: as above; type: binding; details: #36-1 at 16 μg/ml, RNIP (#197) at 25 μg/ml preincubated with LPS 30 minutes
Experimental: as §2, §3, §4, §5, §6

[5] = test system: E. coli 0127:B8 LPS; assay: as above; type: binding; details: #36-1 at 16 μg/ml, RNIP (#197) at 25 μg/ml preincubated with LPS 30 minutes
Experimental: as §2, §3, §4, §5, §6

[6] = test system: E. coli 0111:B4 LPS; assay: as above; type: binding; details: #36-1 at 16 μg/ml, RNIP (#197) at 25 μg/ml preincubated with LPS 30 minutes
Experimental: as §2, §3, §4, §5, §6

[7] = test system: Salmonella minnesota R595 LPS; assay: as above; type: binding; details: #36-1 at 16 μg/ml, RNIP (#197) at 25 μg/ml preincubated with LPS 30 minutes
Experimental: as §2, §3, §4, §5, §6

[8] = test system: E. coli 055:B5 LPS; assay: as above; type: binding; details: #36-1 at 16 μg/ml, RNIP (#197) at 25 μg/ml preincubated with LPS 30 minutes
Experimental: as §2, §3, §4, §5, §6

[9] = test system: RAW 264.7 cells; assay: Reversal of LPS-induced inhibition of RAW 264.7 cell proliferation; type: cell-based, murine; details: 5 ng/ml of LPS; FIG. 8
Experimental: When LPS is added to RAW 264.7 cells it causes a dose-dependent inhibition of proliferation with differentiation of the cells into a macrophage phenotype.

[10] = test system: ddY mice; assay: Tissue factor lethality model; type: in vivo; details: for Survival (%) / No. of Mice (dead/total) / Survival time: Tissue factor 1.0 mg/mouse IV; for Survival (%): control 0; for No. of Mice (dead/total): control 7/7; for Survival time: control 187 ± 70
Experimental: Reference tissue factor (Simplastin, 1 mg/mouse) was IV injected into ddY mice (male, 20-week-old, 38-45 g) incubated with or without peptide.
The anticoagulant activity of the RNIP peptides was studied in an acute animal model. Direct injection of tissue factor IV (Simplastin, 1 mg/mouse) produces acute intravascular coagulation and death within three minutes.
^a Tissue factor (Simplastin, 10 mg/ml was mixed with equal volume of
synthetic peptide 100 μg/ml or 50 μg/ml and 0.2 ml of the mixture
injected IV. ddY mice (20 weeks, 38-45 gm).

[11] = test system: thioglycolate elected murine peritoneal exudate cells; assay: RNI generation by thioglycolate-elicited peritoneal exudate cells; type: cell-based; details: for RNI (reactive nitrogen intermediate): RNIP 50 nm
Experimental: as §1

[12] = test system: E. coli (HB101); assay: Bacterial proliferation, 3H-thymidine incorporation; type: cell-based
Experimental: (§7) Bacteria were grown in trypticase broth overnight.
(§8) To corroborate the anti-bacterial activity shown in the CFU assays, inhibition of proliferation of bacteria was tested directly using a ^3 H-thymidine incorporation assay. […] In summary although there is some strain to strain variation in the IC50, all of the Gram-negativestrains tested in two different types of assays were sensitive to these anti-microbial peptides.

[13] = test system: Pseudomonas apacia; assay: as above; type: cell-based
Experimental: as §7, §8

[14] = RNIP 6 μg/ml (so in the source)

36-1: synthetic rabbit RNIP-derived fragment, amino acids 135-166 of SEQ ID NO:4 (GLRKRLRKFRNKIKEKLKKIGQKIQGLLPKLA)
activity in hemagglutination and inhibition of LPS-induced RNI [1]: active | Inhibition of LPS-induced RNI-IC50 [1]: 0.08 µg/mL | concentrations at which peptides are active in the bioassay [1]: 10 to 50 nM | MIC (minimal inhibitory concentration of LPS) [2]: 31.3 µg/mL | MIC (minimal inhibitory concentration of LPS) [3]: 7.8 µg/mL | MIC (minimal inhibitory concentration of LPS) [4]: 3.9 µg/mL | MIC (minimal inhibitory concentration of LPS) [5]: 15.6 µg/mL | MIC (minimal inhibitory concentration of LPS) [6]: 15.6 µg/mL | MIC (minimal inhibitory concentration of LPS) [7]: 15.6 µg/mL | MIC (minimal inhibitory concentration of LPS) [8]: 15.6 µg/mL

RNIP: reactive nitrogen inhibitory protein, amino acids 135-171 of SEQ ID NO:4 (rabbit CAP18 C-terminus); purified from granulocytes or synthetic (#197) (GLRKRLRKFRNKIKEKLKKIGQKIQGLLPKLAPRTDY)
effect on LPS-induced inhibition of proliferation [9]: reverses the inhibition of proliferation | Survival (%) ([10]; Peptide #197 5 μg/mouse): 43% | No. of Mice (dead/total) ([10]; Peptide #197 5 μg/mouse): 4/7 | Survival time ([10]; Peptide #197 5 μg/mouse): 228 ± 48 s | Survival (%) ([10]; Peptide #197 10 μg/mouse, p < 0.05): 57% | No. of Mice (dead/total) ([10]; Peptide #197 10 μg/mouse): 3/7 | Survival time ([10]; Peptide #197 10 μg/mouse): 305 s | reduction of mortality ([10]; tissue factor IV 1 mg/mouse): 57% | activity in hemagglutination and inhibition of LPS-induced RNI [1]: active | IC50 ([1]; 2.5 ng/ml LPS, FIG. 6B, read-out: 50% inhibitory concentration (IC50), LPS-induced RNI production): ~30 nM | capacity to inhibit LPS-stimulated nitrogen radical release from macrophages ([1]; HPLC-purified rabbit peptides, FIG. 5): active | reactive nitrogen intermediates (RNI) ([1]; LPS (2.5 ng/ml), RNIP (1:1), stimulus alone 27): 4 µM | reactive nitrogen intermediates (RNI) ([1]; LPS (2.5 ng/ml), RNIP (1:10), stimulus alone 27): 16 µM | reactive nitrogen intermediates (RNI) ([1]; LPS (2.5 ng/ml), RNIP (1:100), stimulus alone 27): 24 µM | Inhibition of LPS-induced RNI-IC50 [1]: about 0.2 μg/ml | Inhibition of LPS-induced RNI-IC50 ([1]; listed as 197/RNIP): 0.2 µg/mL | reactive nitrogen intermediates (RNI) ([1]; Murine IFNγ (250 U), RNIP (1:1), stimulus alone 30): 15 µM | reactive nitrogen intermediates (RNI) ([1]; Murine IFNγ (250 U), RNIP (1:10), stimulus alone 30): 18 µM | reactive nitrogen intermediates (RNI) ([1]; Murine IFNγ (250 U), RNIP (1:100), stimulus alone 30): 20 µM | concentrations at which peptides are active in the bioassay [1]: 10 to 50 nM | MIC (minimal inhibitory concentration of LPS) [2]: 62.5 µg/mL | MIC (minimal inhibitory concentration of LPS) [3]: 15.6 µg/mL | MIC (minimal inhibitory concentration of LPS) [4]: 15.6 µg/mL | MIC (minimal inhibitory concentration of LPS) [5]: 62.5 µg/mL | MIC (minimal inhibitory concentration of LPS) [6]: 31.3 µg/mL | MIC (minimal inhibitory concentration of LPS) [7]: 62.5 µg/mL | MIC (minimal inhibitory concentration of LPS) [8]: 62.5 µg/mL | RNI (reactive nitrogen intermediate) ([11]; IFN 500 U/ml, without RNIP 4.0 ± 0.8): 1.1 µM | RNI (reactive nitrogen intermediate) ([11]; LPS + IFNγ 1 ng + 500 U/ml, without RNIP 26 ± 0.6): 14 ± 0.7 µM | IC50 ([11]; read-out: IC50 for inhibition of gamma interferon stimulated nitrogen radical release): < 50 nM | Percent inhibition of proliferation ([12]; RNIP 1.25 μg/ml): 88% | Percent inhibition of proliferation ([12]; RNIP 2.5 μg/ml): 99% | Inhibition (%) of proliferation ([12]; RNIP 2.5 μg/ml, FCS 0 %): 94 ± 10.3% | Inhibition (%) of proliferation ([12]; RNIP 2.5 μg/ml, FCS 1 %): 91 ± 10.9% | Inhibition (%) of proliferation ([12]; RNIP 2.5 μg/ml, FCS 5 %): 87 ± 3.1% | Inhibition (%) of proliferation ([12]; RNIP 2.5 μg/ml, FCS 10 %): 78 ± 5.5% | Percent inhibition of proliferation ([12]; RNIP 5.0 μg/ml): 99% | Percent inhibition of proliferation [12, 14]: 81% | Percent inhibition of proliferation ([13]; RNIP 1.25 μg/ml): 80% | Percent inhibition of proliferation ([13]; RNIP 2.5 μg/ml): 99% | Percent inhibition of proliferation ([13]; RNIP 5.0 μg/ml): 99% | Percent inhibition of proliferation [13, 14]: 81%
